The values that follow come from patent US9981923B2, “1,2,3 Triazole antifungal agents and preparation thereof” (COUNCIL OF SCIENTIFIC & INDUSTRIAL RESEARCH, priority 2014, dated 2018).

As a reminder, the MIC is the least concentration at which growth counts as inhibited. In general, melting point refers to the temperature, or range, at which the solid turns liquid.

Data set [1] concerns reactive oxygen species (ROS). Put plainly: ROS production using dichlorofluorescin diacetate dye. The data set is classed as cell-based. To be noted: C. albicans ATCC 24433, dichlorofluorescin diacetate dye. The protocol: Apart from lanosterol 14 a-demethylase inhibition, few azoles like miconazole are known to exert their antifungal action by reactive oxygen species (ROS) generation. Therefore ROS production in C. albicans ATCC 24433 was evaluated for these compounds by using dichlorofluorescin diacetate dye. […] ROS can damage a wide range of molecules, including nucleic acids, proteins and lipids, can cause apoptosis, necrotic death and with this wide range of targets it is difficult to determine which events lead to loss of viability of cells following damage.

For data set [2], the system named is Candida albicans ATCC 10231. The data set can be described thus: Antifungal susceptibility by microbroth dilution (CLSI). The note with it: Table 1, 48 h, >90% inhibition of growth. The data set is classed as cell-based. The protocol:
(§1) The synthesized compounds were evaluated for antifungal susceptibility by microbroth dilution method according to the recommendations of the Clinical Laboratory Standards Institute (CLSI 2008). Briefly, appropriate amount of compounds were dissolved in dimethyl sulfoxide to get 100× final strength. The stock was then diluted 1:50 in RPMI/YPG medium and 200 μl from this was added to the first row of a 96-well microtitre plate. The compounds were serially diluted two fold in successive wells to get a range of 1-128 μg/ml. Fungal yeast cells (˜2×10^3 cfu/mL), freshly grown in YPG broth in logarithmic phase, were suspended in the medium and inoculated (100 μl) in the wells of the plate. For filamentous fungi, 2×10^4 spores/mL were added. The microtitre plate was incubated for 48 h, and the absorbance was measured at 600 nm by using microtitre plate reader to assess cell growth.
In general terms: Dilution methods test growth across graded concentrations, often in twofold steps.

In data set [3] the test system is Candida glabrata NCYC 388. The description is as above. The note with it: Table 1, 48 h, >90% inhibition of growth. Type of data set: cell-based. How it is done: as §1
Data set [4] deals with Aspergillus niger ATCC 10578. The description is as above. Type of data set: cell-based. To be noted: Table 1, 48 h, >90% inhibition of growth. The protocol:
as §1

Data set [5] has as its system Aspergillus fumigatus MCC 1046. Described as above. The data set is classed as cell-based. The note with it: Table 1, 48 h, >90% inhibition of growth. How it is done: as §1
Data set [6] relates to Cryptococcus neoformans ATCC 34664. The description is as above. Type of data set: cell-based. To be noted: Table 1, 48 h, >90% inhibition of growth. The protocol:
as §1

In data set [7] the test system is Candida albicans ATCC 24433. Described as above. Type of data set: cell-based. The note with it: Table 1, 48 h, >90% inhibition of growth, range 1-128 μg/ml. How it is done:
as §1

The next data set deals with ergosterol. The data set can be described thus: Effect of the compounds on sterol profile (spectrophotometric ergosterol quantitation). To be noted: for ergosterol depletion (sterol profile, height of absorbance peaks 220-300 nm): C. albicans ATCC 24433, 24 h, 0.5 MIC and MIC of the lead compounds; for inhibition of lanosterol 14 α-demethylase enzyme (concluded from ergosterol depletion): C. albicans ATCC 24433 sterol profile. The data set is classed as cell-based, C. albicans ATCC 24433. How it is done:
Inhibition of lanosterol 14 α-demethylase by azoles results in depletion of ergosterol. The depletion can be quantified by spectrophotometry. Briefly, Overnight grown C. albicans ATCC 24433 (1×10^6 cfu/ml) cells were inoculated in a series of flasks containing 50 ml of Yeast extract Peptone Glucose (YPG) broth containing […] of fluconazole per ml as well as 0.5 MIC and MIC of the lead compounds. The cultures were incubated for 24 h with shaking at 30° C. The stationary-phase cells were harvested by centrifugation […] and washed once with sterile distilled water. The net wet weight of the cell pellet was determined. Three milliliters of 25% alcoholic potassium hydroxide solution (25 g of […] and 35 ml of sterile distilled water, brought to 100 ml with 100% ethanol), was added to 125 mg of pellet and vortex mixed for 1 min. Cell suspensions were transferred to sterile borosilicate glass screw-cap tubes and were incubated in an 85° C. water bath for 1 h. Following incubation, tubes were allowed to cool to room temperature. Sterols were then extracted by addition of a mixture of 1 ml of sterile distilled water and 3 ml of n-heptane followed by vigorous vortex mixing for 3 min. The heptane layer was transferred to a clean borosilicate glass screw-cap tube. The sterol extract was scanned spectrophotometrically between 220 and 300 nm with a Spectrophotometer.

For a further data set, the system named is pathogenic fungi. Put plainly: Antifungal activity, overall assessment of the microbroth dilution results. To be noted: based on the MIC results. The data set is classed as cell-based. How it is done:
as §1

[8] abbreviates: Candida albicans, ATCC10231, read-out: MIC.
The mark [9] stands for this setting: Nakaseomyces glabratus, NCYC388, read-out: MIC.
Where [10] appears, read: Aspergillus niger, ATCC10578, read-out: MIC.
Setting [11] is: Aspergillus fumigatus, MCC1046, read-out: MIC.
The mark [12] stands for this setting: Cryptococcus neoformans, ATCC34664, read-out: MIC.
The mark [13] stands for this setting: Candida albicans, ATCC24433, read-out: MIC.

SMILES strings stand for the structures. ≈ marks a conversion by molar mass, not a printed value. Like-named read-outs stand apart in the source and are kept apart here.

As to `Cc1cc(C)cc(C(O)c2cn(-c3ccc(Cl)cc3O)nn2)c1` (stereo not shown) [Compound 1ab, 5-Chloro-2-(4-((3,5-dimethylphenyl)(hydroxy)methyl)-1H-1,2,3-triazol-1-yl)phenol], in data set [1], the ROS generation entry was “dose dependent increase in ROS generation”. Further, the MIC is 32 µg/mL (≈ 97 µM) in [2] (setting [8]); 32 µg/mL (≈ 97 µM) in [3] (setting [9]); greater than 128 µg/mL in [4] (setting [10]); 32 µg/mL (≈ 97 µM) in [5] (setting [11]); 32 µg/mL (≈ 97 µM) in [6] (setting [12]); 32 µg/mL (≈ 97 µM) in data set [7] (setting [13]). Moreover, the “ergosterol depletion (sterol profile, height of absorbance peaks 220-300 nm)” value in the data set with ergosterol is recorded as “no ergosterol depletion was observed”. The “antifungal activity, overall assessment” value in the data set on pathogenic fungi was “promising molecules”.

On to `CCC(O)(c1ccccc1)c1cn(-c2cc(Cl)ccc2O)nn1` (stereo not shown) [Compound 1da], for which the ROS generation entry in data set [1] was “dose dependent increase in ROS generation”. For the same molecule, the MIC in data set [2] was 16 µg/mL (≈ 48.5 µM); in [3], 8 µg/mL (≈ 24.3 µM); in data set [4], greater than 128 µg/mL; in data set [5] it was greater than 128 µg/mL; in [6] it was 16 µg/mL (≈ 48.5 µM); in data set [7] it was 16 µg/mL (≈ 48.5 µM). Besides, the “ergosterol depletion (sterol profile, height of absorbance peaks 220-300 nm)” value in the data set on ergosterol is reported as “no ergosterol depletion was observed”. Besides, the “inhibition of lanosterol 14 α-demethylase enzyme (concluded from ergosterol depletion)” value with ergosterol is given as “potent inhibitors”. Further, the “antifungal activity, overall assessment” value in the data set with pathogenic fungi was “promising molecules”.

For `CCC(O)(c1ccccc1)c1cn(-c2ccc(Cl)cc2O)nn1` (stereo not shown) [Compound 1db], the MIC in [2] is 32 µg/mL (≈ 97 µM); in data set [3], 8 µg/mL (≈ 24.3 µM); in data set [4], greater than 128 µg/mL; in data set [5], greater than 128 µg/mL; in data set [6], 16 µg/mL (≈ 48.5 µM); in data set [7], 16 µg/mL (≈ 48.5 µM). In the data set on pathogenic fungi, the “antifungal activity, overall assessment” value is on record as “promising molecules”.

`CC(O)(Cc1cn(-c2cc(Cl)ccc2O)nn1)c1ccccc1` (stereo not shown) [Compound 2fa, 4-Chloro-2-(4-(2-hydroxy-2-phenylpropyl)-1H-1,2,3-triazol-1-yl)phenol]: the ROS generation entry in data set [1] is listed as “dose dependent increase in ROS generation”. The MIC in [2] (setting [8]) is 16 µg/mL (≈ 48.5 µM); in data set [3] (setting [9]), 8 µg/mL (≈ 24.3 µM); in data set [4] (setting [10]), greater than 128 µg/mL; in [5] (setting [11]), 8 µg/mL (≈ 24.3 µM); in data set [6] (setting [12]) it was 16 µg/mL (≈ 48.5 µM); in data set [7] (setting [13]) it was 16 µg/mL (≈ 48.5 µM). Further, in the data set on pathogenic fungi, the “antifungal activity, overall assessment” value is listed as “promising molecules”.

For `CCC(O)(Cc1cn(-c2cc(Cl)ccc2O)nn1)c1ccccc1` (stereo not shown) [Compound 2ga, 4-Chloro-2-(4-(2-hydroxy-2-phenylbutyl)-1H-1,2,3-triazol-1-yl)phenol], the melting point was in the range of 153 to 155 °C. Besides, in data set [2] (setting [8]), the MIC was determined as 16 µg/mL (≈ 46.5 µM). Further, the MIC in data set [3] (setting [9]) stood at 8 µg/mL (≈ 23.3 µM). Further, the MIC in [4] (setting [10]) was greater than 128 µg/mL. Besides, the MIC in data set [5] (setting [11]) was determined as 32 µg/mL (≈ 93.1 µM). Further, the MIC in [6] (setting [12]) stood at 16 µg/mL (≈ 46.5 µM). Also, in [7] (setting [13]), the MIC is 16 µg/mL (≈ 46.5 µM). The “inhibition of lanosterol 14 α-demethylase enzyme (concluded from ergosterol depletion)” value in the data set with ergosterol is “potent inhibitors”. Moreover, the “antifungal activity, overall assessment” value in the data set with pathogenic fungi is listed as “promising molecules”.

On to `CCC(O)(Cc1cn(-c2ccc(Cl)cc2O)nn1)c1ccccc1` (stereo not shown) [Compound 2gb, 5-Chloro-2-(4-(2-hydroxy-2-phenylbutyl)-1H-1,2,3-triazol-1-yl)phenol], for which the melting point is 129 to 131 °C. Also, the MIC in [2] (setting [8]) came to 16 µg/mL (≈ 46.5 µM). The MIC in data set [3] (setting [9]) amounted to 8 µg/mL (≈ 23.3 µM). Further, the MIC in data set [4] (setting [10]) is greater than 128 µg/mL. In data set [5] (setting [11]), the MIC was determined as 8 µg/mL (≈ 23.3 µM). Besides, the MIC in [6] (setting [12]) was 8 µg/mL (≈ 23.3 µM). In addition, the MIC in data set [7] (setting [13]) was 16 µg/mL (≈ 46.5 µM). For the same molecule, the “ergosterol depletion (sterol profile, height of absorbance peaks 220-300 nm)” value in the data set on ergosterol is reported as “most effective”. Besides, the “antifungal activity, overall assessment” value in the data set on pathogenic fungi was “promising molecules”.
